Data: patent publication US20100119483A1, “PEPTIDE VIRAL ENTRY INHIBITORS” (Schering Corporation, priority 2004, published 2010)
“And” between values parts separate entries of the source, which are not always exact repeats. Equal entries are not always repeated.

Tests used:
[1] = tested on: amphotropic murine leukemia virus; experiment: AMLV pseudotyped virus entry counter-screen, same infection protocol; assay type: cell-based; conditions: peptide library screen; cell entry inhibition vs uninhibited control
How it was run: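 Huh7 hepatoma cells pre-incubated with peptide 1 h at 37 °C, then infected with AMLV pseudotyped virus and cultured 72 h at 37 °C, 5% CO2 before luciferase read-out. Peptides screened at 100 ug/ml, then 10-point 3-fold titrations from 100 ug/ml.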

[2] = tested on: HCV pseudoparticles; experiment: Fusion/attachment experiments with HCV pseudoparticles (4° C. attachment, 37° C. entry); assay type: cell-based, hepatitis C virus; conditions: for RLU: single replicates, listed as V-2b
Experimental: The entry process was allowed to complete after the cells were washed and incubated at 37° C. for 72 hours. If the peptide blocked or interfered with the attachment, few HCVpp particles should bind to the cells and lead to reduced luciferase signal. The peptide had approximately 50% inhibition whereas the anti-CD81 antibody inhibited entry by 20%. Alternatively, an explanation could be that the cell-associated peptide or antibody had no effects on virus attachment, but rather inhibit post-attachment steps, e.g. fusion. When we allowed the HCV pseudoparticles to attach first at 4° C., a nonpermissive temperature for fusion, and added the peptide or anti-CD81 antibody when post-attachment events occurred, anti-CD81 antibody almost inhibited entry by 100%, whereas, the peptide inhibited by approximately 80%.
The incubation scheme for the fusion/attachment experiments is summarized as follows: […]

[3] = tested on: HIVpp; experiment: HIV pseudotyped virus (HIVpp) entry counter-screen; assay type: cell-based; conditions: 1st and 2nd trial
Experimental: Infection of hepatoma cell lines with HCV pseudotype particles and screen for inhibitory peptides. The hepatoma cells, Huh7, was seeded at 8000 cells in 90 ul medium in 96-well plate. In the case of the inhibitor screen, the inhibitor was incubated with cells for one hour at 37° C. and then 50 ul viral supernatant was added to the cells 24 hours after seeding. The viral stock was pre-tittered and diluted to yield approximately 10,000 to 20,000 RLU. The cells were incubated at 37° C. with 5% CO2 for additional 72 hours and were harvested for luciferase assay. Peptide stocks were prepared in 100% DMSO at 10 mg/ml and were first screened at 100 ug/ml and then a dose responsive curve was generated with 10 points 3-fold titration starting from 100 ug/ml.
The specificity of the peptides were counter-screened with AMLV and HIV pseudotyped viruses using the same infection protocol.
The data points for the dose response curve of peptide […] (SEQ ID NO: 77) are shown below in tables 5A (HCVpp) and 5B (HIVpp). The peptide of SEQ ID NO: 77 was first serial diluted by the factor of 3 in 100% DMSO from 100 ug/ml and then transferred to the assay plates at 100-fold dilution. The peptide was first incubated with cells and HCVpp (A) or HIVpp (B), respectively, for 30 minutes at […] in this experiment. Then, the medium containing the peptide was removed from the cells and virus with peptide was added to the cells. Cells were incubated for 72 hours and then were harvested for luciferase assay. Two separate trials were performed.

[4] = tested on: HCV pseudoparticles; experiment: HCV pseudoparticle entry assay, anti-CD81 antibody and peptide titrated in a 96-well matrix; assay type: cell-based, hepatitis C virus; conditions: HCV entry inhibition, combination
Experimental: The anti-CD81 antibody and the peptide were titrated in duplicates in a 96-well formatted matrix and tested in an HCV pseudoparticle entry assay. The assays were carried out essentially as described above.
Dose response curves of anti-CD81 antibody with various amounts of peptide were plotted vs. RLU, and the results are summarized below. […] When the peptide was present at 10-30% of its IC50 concentration, the IC50 for anti-CD81 was reduced by 3 to 6-fold. Similarly, when the peptide was present at 1% to 25% of its IC75 concentration, the IC75 for the anti-CD81 antibody was reduced by 3 to 9 fold. Thus, the peptide enhances the potency of the anti-CD81 antibody.

[5] = A + P (attachment + post attachment)

V-S-F-A-I-K-W-E-Y-V-L-L-L-F-L-L [SEQ ID NO: 77]
AMLVpp % inh [1]: 3% | step of HCVpp entry inhibited [2]: largely inhibits a post-attachment step | % control peptide ([2]; A (attachment)): 39 % control | RLU average (peptide) ([2]; A (attachment)): 5942 RLU | RLU ([2]; A (attachment)): 5196 RLU and 7987 RLU and 4644 RLU | % control peptide [2, 5]: 6 % control | RLU average (peptide) [2, 5]: 863 RLU | RLU [2, 5]: 527 RLU and 1541 RLU and 520 RLU | inhibition of entry ([2]; HCV pseudoparticles attached first at 4° C., substance added when post-attachment events occurred): approximately 80% | % control peptide ([2]; P (post attachment)): 11 % control | RLU average (peptide) ([2]; P (post attachment)): 1647 RLU | RLU ([2]; P (post attachment)): 1984 RLU and 2412 RLU and 545 RLU | inhibition of entry ([2]; pre-incubated with cells at 4° C., then HCV pseudoparticles at 4° C., washed, 37° C. for 72 hours (attachment)): approximately 50% | RLU units ([3]; peptide conc. 0.091515 log ug/ml): 674698 RLU and 651004 RLU | RLU units ([3]; peptide conc. 0.568636 log ug/ml): 561454 RLU and 612198 RLU | RLU units ([3]; peptide conc. 1.045758 log ug/ml): 740592 RLU and 744482 RLU | RLU units ([3]; peptide conc. 1.522879 log ug/ml): 787025 RLU and 683636 RLU | RLU units ([3]; peptide conc. 2 log ug/ml): 435408 RLU and 543239 RLU | RLU units ([3]; peptide conc. −0.38561 log ug/ml): 732652 RLU and 734586 RLU | RLU units ([3]; peptide conc. −0.86273 log ug/ml): 676303 RLU and 639921 RLU | RLU units ([3]; peptide conc. −1.33985 log ug/ml): 815312 RLU and 754404 RLU | effect of the peptide on potency of anti-CD81 antibody [4]: enhance the potency of an anti-CD81 antibody
